From ChEMBL document CHEMBL3217732, “Inhibition of Pseudomonas aeruginosa biofilms with a glycopeptide dendrimer containing D-amino acids” (Medchemcomm, 2011)
Calls of active or inactive are those of the source. The rule behind the calls is not given here. Where a SMILES comes first, the peptide text is derived from it. Bridges are numbered along the chain shown (N, C = ends). Roman numbers before positions name the chains, in order. Side-chain parts run from the residue outwards. The star is where a group is joined. Acetyl(C-α-L-Fucp) = C[C@@H]1O[C@@H](CC(=O)*)[C@@H](O)[C@H](O)[C@@H]1O

What was measured:
[1] = system: Pseudomonas aeruginosa; assay: Inhibition of Pseudomonas aeruginosa clinical isolate A014 biofilm formation at 0.05 mM after 24 hrs using acridine orange staining by steel coupon assay; type: functional, organism-based
[2] = Binding affinity to Pseudomonas aeruginosa lectin LecB after 1 hr by enzyme-linked lectin assay
[3] = system: Pseudomonas aeruginosa; assay: Ratio of L-fucose IC50 to compound IC50 for Pseudomonas aeruginosa lectin LecB after 1 hr by enzyme-linked lectin assay
[4] = system: Pseudomonas aeruginosa; assay: Ratio of FD2 IC50 to compound IC50 for Pseudomonas aeruginosa lectin LecB after 1 hr by enzyme-linked lectin assay
[5] = system: Pseudomonas aeruginosa; assay: Inhibition of wild type Pseudomonas aeruginosa PAO1 biofilm formation at 0.05 mM after 24 hrs using acridine orange staining by steel coupon assay; type: functional, organism-based
[6] = system: Pseudomonas aeruginosa; assay: Inhibition of Pseudomonas aeruginosa clinical isolate A021 biofilm formation at 0.05 mM after 24 hrs using acridine orange staining by steel coupon assay; type: functional, organism-based
[7] = system: Pseudomonas aeruginosa; assay: Inhibition of Pseudomonas aeruginosa clinical isolate A035 biofilm formation at 0.05 mM after 24 hrs using acridine orange staining by steel coupon assay; type: functional, organism-based
[8] = Stability of the compound in 100 mM of tris buffer at pH 7.5 after 48 hrs in presence of trypsin; type: ADME; conditions: isolated protein, pH 7.5, 48 h
[9] = Stability of the compound in 100 mM of tris buffer at pH 7.5 after 48 hrs in presence of chymotrypsin; type: ADME; conditions: isolated protein, pH 7.5, 48 h
[10] = system: Serum; assay: Metabolic stability in human serum; type: ADME, cell-free
[11] = Stability of the compound in 100 mM of tris buffer at pH 7.5 after 30 mins in presence of trypsin; type: ADME; conditions: isolated protein, pH 7.5, 0.5 h
[12] = Stability of the compound in 100 mM of tris buffer at pH 7.5 after 30 mins in presence of chymotrypsin; type: ADME; conditions: isolated protein, pH 7.5, 0.5 h
[13] = Half life in human serum; type: ADME, cell-free

Row | SMILES | inhibition [1] | IC50 [2] | Ratio IC50 [3] | Ratio IC50 [4] | inhibition [5] | inhibition [6] | inhibition [7] | Stability [8] | Stability [9] | Stability [10] | Stability [11] | Stability [12] | half-life [13]
1 | CC(C)C[C@@H](NC(=O)[C@@H](Cc1cnc[nH]1)NC(=O)[C@@H](CCCCNC(=O)[C@@H](CC(C)C)NC(=O)[C@@H](CCCCN)NC(=O)[C@@H](Cc1ccccc1)NC(=O)[C@@H](CCCCNC(=O)[C@@H](CC(C)C)NC(=O)[C@H]1CCCN1C(=O)[C@@H](CCCCN)NC(=O)C[C@@H]1O[C@@H](C)[C@@H](O)[C@@H](O)[C@@H]1O)NC(=O)[C@@H](CC(C)C)NC(=O)[C@H]1CCCN1C(=O)[C@@H](CCCCN)NC(=O)C[C@@H]1O[C@@H](C)[C@@H](O)[C@@H](O)[C@@H]1O)NC(=O)[C@@H](CC(C)C)NC(=O)[C@@H](CCCCN)NC(=O)[C@@H](Cc1ccccc1)NC(=O)[C@@H](CCCCNC(=O)[C@@H](CC(C)C)NC(=O)[C@H]1CCCN1C(=O)[C@@H](CCCCN)NC(=O)C[C@@H]1O[C@@H](C)[C@@H](O)[C@@H](O)[C@@H]1O)NC(=O)[C@@H](CC(C)C)NC(=O)[C@H]1CCCN1C(=O)[C@@H](CCCCN)NC(=O)C[C@@H]1O[C@@H](C)[C@@H](O)[C@@H](O)[C@@H]1O)C(N)=O | Active | 660 nM | 16.7 | 4.7 | Active | Active | Active | Stable | Stable | Stable |  |  | 
2 | CC(C)C[C@H](NC(=O)[C@H](Cc1cnc[nH]1)NC(=O)[C@H](CCCCNC(=O)[C@H](CC(C)C)NC(=O)[C@H](CCCCN)NC(=O)[C@H](Cc1ccccc1)NC(=O)[C@H](CCCCNC(=O)[C@H](CC(C)C)NC(=O)[C@@H]1CCCN1C(=O)[C@H](CCCCN)NC(=O)C[C@@H]1O[C@@H](C)[C@@H](O)[C@@H](O)[C@@H]1O)NC(=O)[C@H](CC(C)C)NC(=O)[C@@H]1CCCN1C(=O)[C@H](CCCCN)NC(=O)C[C@@H]1O[C@@H](C)[C@@H](O)[C@@H](O)[C@@H]1O)NC(=O)[C@H](CC(C)C)NC(=O)[C@H](CCCCN)NC(=O)[C@H](Cc1ccccc1)NC(=O)[C@H](CCCCNC(=O)[C@H](CC(C)C)NC(=O)[C@@H]1CCCN1C(=O)[C@H](CCCCN)NC(=O)C[C@@H]1O[C@@H](C)[C@@H](O)[C@@H](O)[C@@H]1O)NC(=O)[C@H](CC(C)C)NC(=O)[C@@H]1CCCN1C(=O)[C@H](CCCCN)NC(=O)C[C@@H]1O[C@@H](C)[C@@H](O)[C@@H](O)[C@@H]1O)C(N)=O |  | 150 nM | 73.3 |  |  |  |  |  |  |  |  |  | 
3 | C[C@H](O)[C@@H](O)[C@@H](O)[C@H](O)C=O [L-FUCOSE] |  | 11000 nM | 1 |  |  |  |  |  |  |  |  |  | 
4 | CC[C@H](C)[C@H](NC(=O)[C@H](Cc1cnc[nH]1)NC(=O)[C@H](CCCCNC(=O)[C@@H](NC(=O)[C@H](CCCCN)NC(=O)[C@H](Cc1ccccc1)NC(=O)[C@H](CCCCNC(=O)[C@H](CC(C)C)NC(=O)[C@@H]1CCCN1C(=O)[C@H](CCCCN)NC(=O)C[C@@H]1O[C@@H](C)[C@@H](O)[C@@H](O)[C@@H]1O)NC(=O)[C@H](CC(C)C)NC(=O)[C@@H]1CCCN1C(=O)[C@H](CCCCN)NC(=O)C[C@@H]1O[C@@H](C)[C@@H](O)[C@@H](O)[C@@H]1O)[C@@H](C)CC)NC(=O)[C@@H](NC(=O)[C@H](CCCCN)NC(=O)[C@H](Cc1ccccc1)NC(=O)[C@H](CCCCNC(=O)[C@H](CC(C)C)NC(=O)[C@@H]1CCCN1C(=O)[C@H](CCCCN)NC(=O)C[C@@H]1O[C@@H](C)[C@@H](O)[C@@H](O)[C@@H]1O)NC(=O)[C@H](CC(C)C)NC(=O)[C@@H]1CCCN1C(=O)[C@H](CCCCN)NC(=O)C[C@@H]1O[C@@H](C)[C@@H](O)[C@@H](O)[C@@H]1O)[C@@H](C)CC)C(N)=O (I: {Acetyl(C-α-L-Fucp)}-KPLK([Leu-Pro-Lys-Acetyl(C-α-L-Fucp)])FKIKHI-NH2 / II: {Acetyl(C-α-L-Fucp)}-KPLK([Leu-Pro-Lys-Acetyl(C-α-L-Fucp)])FKI; amide I:8-II:C) |  | 140 nM | 78.6 |  |  |  |  |  |  |  | Unstable | Unstable | 60 h
